Assay: Liquid chromatography mass spectrometry analysis of fingerprint sweat samples for Tuberculosis medication and metabolite
Type: in vivo, human
Conditions: for percentage of fingerprint samples in which detected: 75 samples; for number of fingerprint samples in which detected (of 25 fingerprints): 5 subjects who had finished a course of Isoniazid at least 72 hours previously
Protocol: All subjects from whom fingerprint samples were taken were human. Fingerprints were taken from the five fingers (i.e. the four fingers and the thumb) of each subject's right hand: • without the hand having been washed; or • after the hand has been washed with soap and water, and covered with a clean surgical glove for 10 minutes, without contacting any other surface.
The chromatography paper with fingerprint samples thereon were placed in a 2 ml Eppendorf microcentrifuge tube, following which an extraction solution (1.5 ml of 10% dichloromethane in methanol) was added. The tube was then centrifuged for 2 min (at 9.5 centrifugal force). The solvent extract was evaporated to dryness under a stream of nitrogen at room temperature (20° C.) and reconstituted in 100 μl mobile phase solution (95:5 water/acetonitrile+0.1% formic acid+iosotopically labelled internal standards) before being vortexed and transferred to a 300 μl glass micro-insert vial, with 5 μl being injected onto an LC-MS/MS system.
Chromatographic separation was performed on a Thermo Scientific™ Ultimate3000 UHPLC system equipped with a binary solvent manager, column manager and autosampler. The injection volume was 5 μL. Separation was performed on a Kinetex XB-C18 column (100×2.1 mm, 5 μm) operated at 30° C. at a flow rate of 0.25 ml/min. Mobile phase comprises 95% H2O (0.1% formic acid) and 5% acetonitrile (ACN) (0.1% formic acid).
The prepared samples were introduced to a Thermo Orbitrap Q-Exactive Plus mass spectrometer using the standard ESI interface with a capillary temperature of 320° C. and spray voltage 3 kV. Positive mass spectra were acquired in full scan mode within a range of m/z 50-500 at a mass resolution of 70 000 at m/z 200.

[1] = after washing hands using soap and water, same subjects as Example 1, isoniazid 300 mg (one 400 mg)
[2] = after washing hands using soap and water, same subjects as Example 1
[3] = hands not washed, approximately 3 hours after 300 mg isoniazid (one subject 400 mg), 15 subjects
[4] = hands not washed, approximately 3 hours after 300 mg isoniazid (one subject 400 mg)
[5] = hands washed using soap and water
[6] = sample obtained 2 hours after the subject had taken Isoniazid
[7] = sample obtained 72 hours after the subject had taken Isoniazid

Compound	number of fingerprint samples in which detected (out of the 75 fingerprint samples) [1]	percentage of fingerprint samples in which detected [2] [%]	number of fingerprint samples in which detected (of 25 fingerprints) (hands not washed)	number of fingerprint samples in which detected (out of the 75 fingerprint samples) [3]	percentage of fingerprint samples in which detected [4] [%]	number of fingerprint samples in which detected (of 25 fingerprints) [5]	presence in fingerprint sweat sample [6]	presence in fingerprint sweat sample [7]	presence in fingerprint sample (approximately 3 hours after 1,000 mg pyrazinamide, hands washed)
CC(=O)NNC(=O)c1ccncc1 [Acetylisoniazid]	72	96	0	73	97	0	shows the presence	does not show the presence	–
NNC(=O)c1ccncc1 [Isoniazid]	40	53	0	51	68	0	shows the presence	does not show the presence	–
NC(=O)c1cnccn1 [pyrazinamide, Pyrazinamide]	–	–	–	–	–	–	–	–	presence of pyrazinamide is evidenced
